Results: ChEMBL document CHEMBL6074673, “Discovery of UCB9386: A Potent, Selective, and Brain-Penetrant Nuak1 Inhibitor Suitable for In Vivo Pharmacological Studies” (J Med Chem, 2024)
≈ marks a conversion by molar mass, not a printed value.

How the values were obtained:
[1] = Metabolic stability in mouse liver microsomes assessed as intrinsic clearance; type: ADME, Microsome
[2] = human, microsomes
in vitro [3] = settings: human, Caco-2
Description: Apparent permeability in human Caco-2 cells

physchem [4] = settings: buffer, pH 7.4
Description: Photostability of compound at pH 7.4 under ambient light assessed as compound remaining at 250 uM measured after 24 hrs by 2 LC-MS analysis

physchem [5] = settings: buffer, pH 7.4; remark: listed apart in the source
Description: Thermodynamic solubility of compound at pH 7.4

in vivo = settings: mouse, brain, 0.5 mg/kg
Description: Ratio of unbound drug concentration in brain to plasma of mouse at 0.5 mg/kg

[6] = Dissociation constant, pKa of compound; type: physicochemical
in vitro [7] = settings: human, hepatocytes
Description: Metabolic stability in human hepatocytes assessed as intrinsic clearance measured per million cells

in vitro [8] = settings: mouse, hepatocytes
Description: Metabolic stability in mouse hepatocytes assessed as intrinsic clearance measured per million cells

Row | SMILES | CLH [1] [mL/min/g] | CLH [2] [mL/min/g] | Papp (in vitro [3]) [×10⁻⁶ cm/s] | remaining at 24 h, 250 µM (physchem [4]) [%] | solubility thermodynamic (physchem [5]) [µM] | Kp uu (in vivo) | pKa [6] | hepatocyte CLint (in vitro [7]) [µL/min/1e6 cells] | hepatocyte CLint (in vitro [8]) [µL/min/1e6 cells]
1 | O=c1c(N2CCOCC2)nc2cnc(-c3cnc4cccnn34)cc2n1Cc1ccccc1 | 52 | 29 | – | – | – | – | – | – | –
2 | O=c1c(C(F)F)nc2cnc(-c3cnc4cccnn34)cc2n1Cc1ccccc1 | 11 | 4 | 13.9 | – | – | – | – | – | –
3 | O=c1cnc2cnc(-c3cnc4cccnn34)cc2n1Cc1ccccc1 | – | 34 | 24.4 | > 97 | – | – | – | – | –
4 | O=c1c(N2CC3CC(C2)N3)nc2cnc(-c3cnc4cccnn34)cc2n1Cc1ccccc1 | 10 | 22 | 13.2 | – | 2 (≈ 0.901 µg/mL) | 0.07 | 8.7 | – | –
5 | CN1CCN(c2nc3cnc(-c4cnc5cccnn45)cc3n(Cc3ccccc3)c2=O)CC1 | 227 | 73 | 23.6 | – | < 1 | – | 7.6 | – | –
6 | O=c1c(N2CCC2)nc2cnc(-c3cnc4cccnn34)cc2n1Cc1ccccc1 | 226 | 63 | – | – | – | – | – | – | –
7 | O=c1c(N2C[C@H]3C[C@@H]2CN3)nc2cnc(-c3cnc4cccnn34)cc2n1Cc1ccccc1 | 3 | 16 | 8.6 | – | – | – | 8.8 | – | –
8 | C[C@H](c1ccccc1)n1c(=O)c(N2CC3CC(C2)N3)nc2cnc(-c3cnc4cccnn34)cc21 | – | 21 | 8.3 | – | 356 (≈ 165 µg/mL) | 0.026 | – | 9 | 6
9 | O=c1c(N2CCNCC2)nc2cnc(-c3cnc4cccnn34)cc2n1Cc1ccccc1 | 32 | 42 | 10.7 | – | < 1 | – | 8.5 | – | –
10 | CC1Oc2ccc(-c3cnc4ccccn34)nc2N(Cc2ccccc2)C1=O (stereo not drawn) | – | – | – | 39 | – | – | – | – | –
11 | CN1C[C@H]2C[C@@H]1CN2c1nc2cnc(-c3cnc4cccnn34)cc2n(Cc2ccccc2)c1=O | 58 | 83 | 12.5 | – | 456 (≈ 212 µg/mL) | 0.5 | 8.4 | – | –
